Laboratory results: patent publication US10933030B2, “Use of paeonol for inhibiting angiogenesis or for enhancing radiosensitization” (priority 2005, dated 2021)

What was measured:
[1] = system: B16BL6 melanoma cells; assay: Growth of solid tumor in B16BL6 melanoma-injected mice; assay type: in vivo, mouse; conditions: oral 1 mg per day for 17 days; compared with control group
Description: Effects of administering the present composition comprising paeonol on the growth of solid tumor were investigated. For the induction of primary tumor, B16BL6 melanoma cells (1×10^6) suspended in 0.2 ml of PBS ([…]) were subcutaneously injected into C57BL6 female mice (SLC Co., Japan; 6 week-old, 20-25 g of body weight) adapted for 1 week. 0.5 mg of the above isolated paeonol was dissolved in 0.2 ml of 20% ethanol, and then 0.5 mg per mouse of paeonol (1 mg/day) was orally administrated into the treated group (n=7) twice a day for 17 days after injecting cancer cells. In the other hand, 0.2 ml of 20% ethanol was also orally administrated into the control group (n=7) in the same manner as treated group. The size of tumor was measured once per 1-2 days for 17 days after injecting cancer cells and then the volume of tumor was calculated in accordance with the following equation, (width)^2×(length)×0.52.

[2] = system: mouse lung carcinoma cell line, LLC (Lewis lung carcinoma); assay: Radiosensitization in LLC-transplanted mice, survival; assay type: in vivo; conditions: for survival of mice: 5 mg/kg oral
Description: Effect of treatment of paeonol during radiation into lung carcinoma cell line-transplanted animal on radiosensitization was investigated.
1×10^6 of mouse lung carcinoma cell line, LLC (Lewis lung carcinoma) cell were suspended in 0.2 ml of PBS, and then were injected into left leg of mouse in order to induce the tumor. LLC-transplanted mice were classified into 4 groups such as control group (n=10), irradiation-treated group (n=10), paeonol-treated group (n=10), and irradiation & paeonol-treated group (n=10).
After the volumes of tumor were about 100-200 mm^3 (6-7 day after LLC injection), 5 Gy of ^60Co radiation was irradiated to irradiation-treated group and irradiation & paeonol-treated group three times at an interval of 2 or 3 days.
After the existence of tumor was detected by touching with hand (4 day after LLC injection), 5 mg/kg of paeonol dissolved in 20% ethanol was orally administered into paeonol-treated group and irradiation & paeonol group once a day for 20 days. For control group and irradiation group, 20% ethanol was orally administered in the same manner as paeonol-treated group.
Enhancing effects of paeonol in combination with radiation on efficacy of radiotherapy was determined by comparing both tumor growth rates and mouse survival rates of 4 groups with each other groups.

[3] = Acute toxicity test in animal; assay type: in vivo; conditions: dosage of 100 mg/kg
[4] = system: human lung carcinoma cell line H460; assay: Radiosensitization, clone formation of lung carcinoma cell line H460; assay type: cell-based
Description: […] At 7 day after irradiation, the clone formation (%) of each groups were measured and then the survival rates of each groups were compared with each other. Irradiation with high dose of radiation into cancer cell line prevents clone formation.

[5] = system: normal human lung cell (BEAS-2B); assay: Cytotoxicity test by MTT assay, normal lung cell; assay type: cell-based
Description: (§1) In order to examine the cytotoxicity of paeonol, 2×10^5 of normal human lung cell (BEAS-2B), human lung carcinoma cell (NCI-H460), human uterine carcinoma cell (HeLa) were treated with various concentrations (0.25, 0.5, 1, 2, 10 μg/ml) of paeonol for 24 hours, and then viabilities of each cells were measured by MTT assay.

[6] = system: B16BL6 melanoma cells; assay: Tumor metastasis into lung after intravenous injection of melanoma cells; assay type: in vivo, mouse
Description: Inhibitory effects of the present composition comprising paeonol on tumor metastasis in tumor-induced mice were investigated. […] 0.25 mg of the above isolated paeonol was dissolved in 0.2 ml of 20% ethanol, and then 0.25 mg per mouse of paeonol (0.5 mg/day) was orally administrated into the treated group (n=6) twice a day for 14 days after injecting cancer cells. In the other hand, 0.2 ml of 20% ethanol was also orally administrated into the control group (n=6) in the same manner as treated group. After 14 days, mice were dissected, and then the numbers of colonies, which metastasized into lung, were counted.

[7] = system: B16BL6 melanoma cells; assay: Radiosensitization in melanoma-transplanted mice, tumor volume; assay type: in vivo, mouse; conditions: for decrease of tumor volume compared with control group: paeonol-treated group, no irradiation
Description: Effect of treatment of paeonol during radiation into melanoma-transplanted animal on radiosensitization was investigated. In order to induce primary tumor, B16BL6 melanoma cells (1×10^6) suspended in 0.2 ml of PBS was subcutaneously injected into C57BL6 female mice (SLC Co., Japan; 6 week-old […]) adapted for 1 week. Melanoma-transplanted mice were classified into 6 groups: control group (n=10), irradiation group (n=10), paeonol-treated groups (0.5 or 1 mg/kg per day) (n=10), and irradiation & paeonol-treated groups (0.5 or 1 mg/kg per day) (n=10), and then it was observed whether the combinational treatment of irradiation and paeonol enhances the radiosensitization of melanoma-transplanted animal. […] For control group and irradiation group, 20% ethanol was orally administered in the same manner as paeonol-treated group. The sizes (width, length) of tumor were measured for 30 days at an interval of 2 or 3 days, and then the volumes of tumor were calculated by the following equation, (width)^2×(length)×0.52.

[8] = system: B16BL6 melanoma cells; assay: Lifetime elongation of tumor-induced mice; assay type: in vivo, mouse; conditions: after 22 days; oral 1 mg/day; n=7
Description: Effects of the present composition comprising paeonol on lifetime elongation of tumor-induced mice were investigated.
(§2) For the induction of primary tumor, B16BL6 melanoma cells (1×10^6) suspended in 0.2 ml of PBS were subcutaneously injected into C57BL6 female mice (SLC Co., Japan; 6 week-old, 20-25 g of body weight) adapted for 1 week.
0.5 mg of the above isolated paeonol was dissolved in 0.2 ml of 20% ethanol, and then 0.5 mg per mouse of paeonol (1 mg/day) was orally administrated into the treated group (n=7) twice a day for 22 days after injecting cancer cells. In the other hand, 0.2 ml of 20% ethanol was also orally administrated into the control group (n=7) in the same manner as treated group.

[9] = system: angiogenesis; assay: Mouse Matrigel model of angiogenesis (hemoglobin in Matrigel); assay type: in vivo; conditions: oral 0.5 mg per mouse twice a day (1 mg/day) for 4 days
Description: Effects of oral administration of paeonol on angiogenesis were quantitatively investigated in mouse Matrigel model. […] 0.5 mg of the above isolated paeonol was dissolved in 0.2 ml of 20% ethanol, and then 0.5 mg per mouse of paeonol (1 mg/day) was orally administrated into the treated group (n=8) twice a day for 4 days. In the other hand, 0.2 ml of 20% ethanol was also orally administrated into the control group (n=8) in the same manner as treated group. On the fifth day of oral administration, Matrigel was separated from excised skin of each mouse, and the level of hemoglobin in the Matrigel was measured in order to determine the inhibition of angiogenesis quantitatively.

[10] = system: mouse lung carcinoma cell line, LLC (Lewis lung carcinoma); assay: Radiosensitization in LLC-transplanted mice, tumor growth rate; assay type: in vivo; conditions: for tumor growth rate went down as compared with control group: 5 mg/kg oral
Description: Effect of treatment of paeonol during radiation into lung carcinoma cell line-transplanted animal on radiosensitization was investigated. 1×10^6 of mouse lung carcinoma cell line, LLC (Lewis lung carcinoma) cell were suspended in 0.2 ml of PBS, and then were injected into left leg of mouse in order to induce the tumor. LLC-transplanted mice were classified into 4 groups such as control group (n=10), irradiation-treated group (n=10), paeonol-treated group (n=10), and irradiation & paeonol-treated group (n=10). […] For control group and irradiation group, 20% ethanol was orally administered in the same manner as paeonol-treated group. […] The sizes (width, length) of tumor were measured for 30 days at an interval of 2 or 3 days, and then the volumes of tumor were calculated by the following equation, (width)^2×(length)×0.52. The tumor growth rates were also calculated by converting into the time which it takes for tumor volume to be 2000 mm^3.

[11] = system: human lung carcinoma cell (NCI-H460); assay: Cytotoxicity test by MTT assay, lung carcinoma cell; assay type: cell-based
Description: as §1

[12] = system: uterine carcinoma cell line HeLa; assay: Radiosensitization, clone formation of uterine carcinoma cell line HeLa; assay type: cell-based, human
Description: […] At 7 day after irradiation, the clone formation (%) of each groups were measured and then the survival rates of each groups were compared with each other.

[13] = system: human uterine carcinoma cell (HeLa); assay: Cytotoxicity test by MTT assay, uterine carcinoma cell; assay type: cell-based
Description: as §1

[14] = system: B16BL6 melanoma cells; assay: Lifetime elongation, paeonol in combination with 5-FU; assay type: in vivo, mouse; conditions: after 22 days, n=7
Description: Effects of paeonol on lifetime elongation of tumor-induced mice were investigated.
as §2
In 5-FU & paeonol treated group, 70 mg/kg per mouse of 5-FU was intraperitoneally injected at 3 day and 6 day after injecting cancer cells, and 1 mg per mouse of paeonol dissolved in 0.2 ml of 20% ethanol was orally administrated twice a day for 21 days after injecting cancer cells. In 5-FU treated group, 70 mg/kg per mouse of 5-FU was treated in the same manner as 5-FU & paeonol treated group. In the other hand, 0.2 ml of 20% ethanol was also orally administrated into control group and 5-FU treated group in the same manner as 5-FU & paeonol treated group.

[15] = system: B16BL6 melanoma cells; assay: Tumor growth, paeonol in combination with 5-FU; assay type: in vivo; conditions: 5-FU 70 mg/kg i.p. at day 3 and 6; paeonol 1 mg per mouse oral twice a day for 21 days
Description: Synergy effect of paeonol in combination with anti-cancer drug, 5-fluorouracil (5-FU) was investigated. For the induction of primary tumor, B16BL6 melanoma cells (1×10^6) suspended in 0.2 ml of PBS were subcutaneously injected into C57BL6 female mice (SLC Co., Japan; 6 week-old, 20-25 g of body weight) adapted for 1 week. […] The size of tumor was measured once per 1-2 days for 21 days after injecting cancer cells and then the volume of tumor was calculated in accordance with the following equation, (width)^2×(length)×0.52.

[16] = Radiation 0 Gy, paeonol 1 μg/ml, 7 day
[17] = Radiation 0 Gy, paeonol 2 μg/ml, 7 day
[18] = Radiation 1 Gy, paeonol 2 μg/ml, 7 day after irradiation
[19] = Radiation 2 Gy, paeonol 1 μg/ml, 7 day after irradiation
[20] = Radiation 2 Gy, paeonol 2 μg/ml, 7 day after irradiation
[21] = Radiation 3 Gy, paeonol 1 μg/ml, 7 day after irradiation
[22] = Radiation 3 Gy, paeonol 2 μg/ml, 7 day after irradiation
[23] = 10 μg/ml of paeonol, 24 hours, MTT

COc1ccc(C(C)=O)c(O)c1 [paeonol]
inhibition of tumor growth [1]: 48%
increase of survival rate compared with control group ([2]; irradiation & paeonol-treated group): about 2 times
survival of mice ([2]; irradiation & paeonol-treated group, 5 Gy three times, control 42, irradiation alone 60): 78 days
survival of mice ([2]; paeonol-treated group, no irradiation, control 42): 69 days
side effects during administration [3]: no side effects
decrease of clone formation compared with control group irradiated with 3 Gy ([4]; 1 μg/ml of paeonol): 16%
decrease of clone formation compared with control group irradiated with 3 Gy ([4]; 2 μg/ml of paeonol): 31%
Clone formation (%) [4, 16]: 100%
Clone formation (%) [4, 17]: 100%
Clone formation (%) [4, 18]: 71.1%
Clone formation (%) ([4]; Radiation 1 Gy, paeonol 12 μg/ml, 7 day after irradiation): 72.5%
Clone formation (%) [4, 19]: 46.4%
Clone formation (%) [4, 20]: 43.3%
Clone formation (%) [4, 21]: 25.8%
Clone formation (%) [4, 22]: 21.2%
cytotoxicity [5, 23]: 6%
LD50 ([5]; human): did not show enough toxicity to calculate LD50
colonies metastasized into lung per mouse ([6]; oral 0.25 mg per mouse twice a day (0.5 mg/day) for 14 days, control 213±60): 132±80 colonies
inhibition of metastasis into lung ([6]; oral 0.5 mg/day for 14 days): 38%
decrease of tumor volume compared with control group, maximum ([7]; irradiation & paeonol-treated groups (0.5 or 1.0 mg/kg), 5 Gy at 4 and 6 day, irradiation alone 33.1%): ≤ 58.9%
decrease of tumor volume compared with control group ([7]; 0.5 mg/kg oral once a day): 6.4%
decrease of tumor volume compared with control group ([7]; 1.0 mg/kg oral once a day): 9.3%
number of mice survived [8]: three
survival rate [8]: 43%
inhibition of angiogenesis [9]: about 67%
hemoglobin content of treated group as compared with control group ([9]; Matrigel with bFGF and heparin): 33%
tumor growth rate went down as compared with control group ([10]; irradiation & paeonol-treated group, 5 Gy three times): 1.4 fold
Tumor growth rate (Time which it takes for tumor volume to be 2000 mm^3) ([10]; irradiation & paeonol-treated group: 5 Gy 60Co three times, paeonol 5 mg/kg oral once a day for 20 days, control 16, irradiation alone 19): 22 days
Tumor growth rate (Time which it takes for tumor volume to be 2000 mm^3) ([10]; paeonol-treated group, 5 mg/kg oral once a day for 20 days, no irradiation, control 16): 19 days
tumor growth rate went down as compared with control group ([10]; paeonol-treated group, no irradiation): 1.2 fold
cytotoxicity [11, 23]: 18%
LD50 ([11]; human): did not show enough toxicity to calculate LD50
decrease of clone formation compared with control group irradiated with 3 Gy ([12]; 1 μg/ml of paeonol): 23%
decrease of clone formation compared with control group irradiated with 3 Gy ([12]; 2 μg/ml of paeonol): 39%
Clone formation (%) [12, 16]: 100%
Clone formation (%) [12, 17]: 100%
Clone formation (%) ([12]; Radiation 1 Gy, paeonol 1 μg/ml, 7 day after irradiation): 73.4%
Clone formation (%) [12, 18]: 72.8%
Clone formation (%) [12, 19]: 45.5%
Clone formation (%) [12, 20]: 44.7%
Clone formation (%) [12, 21]: 12.3%
Clone formation (%) [12, 22]: 10.9%
cytotoxicity [13, 23]: 15%
LD50 ([13]; human): did not show enough toxicity to calculate LD50

O=c1[nH]cc(F)c(=O)[nH]1 [Compound 5-FU, 5-fluorouracil]
survival rate ([14]; 5-FU 70 mg/kg i.p. at day 3 and 6, paeonol 1 mg per mouse oral twice a day): 14%
number of mice survived [14]: one
inhibition of tumor growth compared with control group [15]: 50%
